Data on 52 compounds can be found in patent US20250214977A1, “STAT6 INHIBITORS AND USES THEREOF” (Kymera Therapeutics, Inc., priority 2024, published 2025).

This assay has as its system Phosphorylation of STAT6 in human A549 cells. Put plainly: Phosphorylated STAT6 (pSTAT6) flow cytometry assay in human A549 cells. The class given is cell-based. To be noted: read-out: STAT6 IL4 pSTAT6 assay in A549 cells: Average IC50. The source says:
Example 3. Phosphorylated STAT6 (pSTAT6) Flow Cytometry Assay in Human A549 Cells
Phosphorylation of STAT6 in human A549 cells was quantitatively measured using flow cytometry technology.
For orientation: Flow cytometry measures light scatter and fluorescence of single cells or particles in a stream.

Some results are limits rather than exact numbers.

For orientation: IC50 means the concentration at which inhibition is half-maximal. For the compound `COc1ccccc1-c1cc(C2=CCCN(C(=O)CCn3ccnn3)C2)c(F)c2[nH]c(C(=O)N3CCN(c4ncnc5cccc(F)c45)CC3)cc12` [Example I-929], the half-inhibitory concentration (IC50) is less than 100 nM.
Take `COc1ccncc1-c1cc(C2=CCCN(C(=O)CCn3ccnn3)C2)c(F)c2[nH]c(C(=O)N3Cc4cnn(C)c4C3)cc12` [Example I-496]: the half-inhibitory concentration (IC50) is greater than 100000 nM.
`CCc1ccncc1-c1cc(C2=CCC[C@H](C(=O)O)C2)c(F)c2[nH]c(C(=O)N3CCN(c4ncc(F)cc4OC)CC3)cc12` (single isomer, unassigned) [Example I-809]: the IC50 is greater than 100000 nM.
As for `CN(C)C(=O)c1cc2ccc(C3CCCN(C(=O)CCn4ccnn4)C3)cc2[nH]1` (stereo not shown) [Example I-1188], the half-maximal inhibitory concentration (IC50) was 100 to 1000 nM.
For `CCc1nc(C)ccc1-c1cc(C(=O)N2CCN(c3ccc(F)cc3OC)CC2)cc2cc(C3=CCCN(C(=O)CCn4ccnn4)C3)n(CC3CC3)c12` [Example I-534], the 50% inhibitory concentration (IC50) was greater than 100000 nM.
Turning to `COc1ccccc1-c1cc(C2=CCCN(C(=O)CCn3ccnn3)C2)c(F)c2[nH]c(C(=O)N3CCN(c4nccc5ccccc45)CC3)cc12` [Example I-363], the IC50 is less than 100 nM.
Take `COc1ccccc1-c1cc(C2=CCCN(C(=O)CCn3ccnn3)C2)c(F)c2[nH]c(C(=O)N3CC=C(c4ncccc4OC)CC3)cc12` [Example I-425]: the IC50 was less than 100 nM.
Then `CCOc1ccncc1-c1cc(C2=CCCN(C(=O)CCn3cccn3)C2)c(F)c2[nH]c(C(=O)N3CCN(c4cncnc4OC)CC3)cc12` [Example I-486], with less than 100 nM; and `COc1cccnc1N1CCN(C(=O)c2cc3c(-n4ccc5ccccc54)cc(C4=CCCN(C(=O)CCn5ccnn5)C4)c(F)c3[nH]2)CC1` [Example I-578], with less than 100 nM; and `COc1cccnc1N1CCN(C(=O)c2cc3c(-c4cc(C#N)ccn4)cc(C4=CCCN(C(=O)CCn5ccnn5)C4)c(F)c3[nH]2)CC1` [Example I-581], with less than 100 nM.
As for `COc1ccccc1-c1cc(C2=CCCN(C(=O)CCn3ccnn3)C2)c(F)c2[nH]c(C(=O)N3CCN(c4cnn5ccncc45)CC3)cc12` [Example I-1015], the figure is less than 100 nM; as for `COc1cc(F)cnc1N1CCN(C(=O)c2cc3c(C4=CCN(C(C)C)CC4)cc(C4=CCCN(C(=O)CCn5ccnn5)C4)c(F)c3[nH]2)CC1` [Example I-1133], less than 100 nM.
On to `COc1ccccc1-c1cc(C2=CCCN(C(=O)CCn3ccnn3)C2)c(F)c2[nH]c(C(=O)N3CCN(c4scnc4C)CC3)cc12` [Example I-777], for which the IC50 was less than 100 nM.
On to `CCOC(=O)C(=O)N1CCC=C(c2cc3cc(C(=O)N4Cc5cnn(CC)c5C4)cc(-c4ccc(CC)nc4C)c3n2CC2CC2)C1` [Example I-799], for which the IC50 is greater than 100000 nM.
As to `COCOc1cc(F)ccc1-c1cc(C2=CCCN(C(=O)CCn3ccnn3)C2)c(F)c2[nH]c(C(=O)N3CCN(c4ncc(F)cc4OC)CC3)cc12` [Example I-670], the half-maximal inhibitory concentration (IC50) was less than 100 nM.
`COc1cc(F)cnc1N1CCN(C(=O)c2cc3c(-c4cccnc4C4CC4)cc(C4=CCCN(C(=O)CCn5ccnn5)C4)c(F)c3[nH]2)CC1` [Example I-628]: the IC50 was less than 100 nM.
For `Cc1c[nH]c2ncc(-c3cc(C4=CCCN(C(=O)CCn5ccnn5)C4)cc4cc(C(=O)N(C)C)oc34)cc12` [Example I-1085], the IC50 was less than 100 nM.
For the compound `CN(C)C(=O)c1cc2cc(C3=CCCN(C(=O)CCc4nccs4)C3)ccc2o1` [Example I-815], the IC50 is 100 to 1000 nM.
Take `COc1cc(F)cnc1-c1cc(C2=CCCN(C(=O)CCn3ccnn3)C2)c(F)c2[nH]c(C(=O)N3CCN(c4ncc(F)cc4OC)CC3)cc12` [Example I-614]: the 50% inhibitory concentration (IC50) was less than 100 nM.
`CCc1cc(C(F)F)ncc1-c1cc(C2=CCCN(C(=O)CCn3ccnn3)C2)c(F)c2[nH]c(C(=O)N3CCN(c4nc(C)c(F)cc4OC)CC3)cc12` [Example I-763]: the IC50 is less than 100 nM.
On to `COc1ccccc1-c1cc(C2=CCCN(C(=O)CCn3ccnn3)C2)cc2cc(C(=O)N(C)C)oc12` [Example I-1103], for which the half-inhibitory concentration (IC50) was less than 100 nM.
For `COc1c(F)cc(F)cc1-c1cc(C2=CCCN(C(=O)CCn3ccnn3)C2)c(F)c2[nH]c(C(=O)N3CCN(c4ncccc4OC4CC4)CC3)cc12` [Example I-597], the half-maximal inhibitory concentration (IC50) was less than 100 nM.
On to `COc1ccccc1-c1cc(C2=CCCN(C(=O)CCn3ccnn3)C2)c(F)c2[nH]c(C(=O)N3CCN(c4cc(F)ccn4)CC3)cc12` [Example I-934], for which the IC50 is less than 100 nM.
Turning to `COc1ccccc1-c1cc(C2=CCCN(C(=O)CCn3ccnn3)C2)c(F)c2[nH]c(C(=O)N3CC4CN(c5ncccc5OC)CC4C3)cc12` (stereo not shown) [Example I-1035], the concentration for half-maximal inhibition (IC50) fell in the range of 100 to 1000 nM.
Then `COc1ccccc1-c1cc(C2=CCCN(C(=O)CCn3ccnn3)C2)cc2[nH]c(C(=O)N(C)C)cc12` [Example I-1054], with less than 100 nM; and `COc1ccncc1-c1cc(C2=CCCN(C(=O)CCn3ccnn3)C2)c(F)c2[nH]c(C(=O)N3CCN(c4ccccn4)C(C)C3)cc12` (stereo not shown) [Example I-568], with less than 100 nM.
As for `CC(=O)N1CCC=C(c2cc(-c3ccc(C)cc3O)c3cc(C(=O)N(C)C)[nH]c3c2F)C1` [Example I-886], the IC50 is 100 to 1000 nM.
Consider `CCc1cc(C)ncc1-c1cc(C2=CCCN(C(=O)CCc3nccs3)C2)c(F)c2[nH]c(C(=O)N3CCN(c4nc(C)ccc4OC)CC3)cc12` [Example I-526], for which the half-inhibitory concentration (IC50) is less than 100 nM.
For the compound `CCc1cnccc1-c1cc(C(=O)N2CCN(c3ncc(F)cc3OC)CC2)cc2cc(C3=CCCN(C(=O)CCn4ccnn4)C3)n(CC3CC3)c12` [Example I-542], the concentration for half-maximal inhibition (IC50) was greater than 100000 nM.
In the case of `COc1ccccc1-c1cc(C2=CCCN(C(=O)CCn3ccnn3)C2)c(F)c2[nH]c(C(=O)N3CCN(c4ccc5c(c4)Nc4ccccc4CC5)CC3)cc12` [Example I-947], the 50% inhibitory concentration (IC50) is 1000 to 10000 nM.
With `COc1ccccc1N1CCN(C(=O)c2cc3c(-c4cc(F)cc(F)c4OC)cc(C4=CCCN(C(=O)CCn5ccnn5)C4)c(F)c3[nH]2)CC1` [Example I-601], the IC50 is less than 100 nM.
Take `COc1cnccc1-c1cc(C2=CCCN(C(=O)CCn3cccn3)C2)c(F)c2[nH]c(C(=O)N3CCN(c4ncc(F)cc4OC)CC3)cc12` [Example I-663]: the IC50 was less than 100 nM.
Turning to `O=C(CCn1ccnn1)N1CCC=C(c2cc(-c3ccccc3OC3CC3)c3cc(C(=O)N4CCN(c5ncccc5OC5CC5)CC4)[nH]c3c2F)C1` [Example I-477], the concentration for half-maximal inhibition (IC50) is less than 100 nM.
For the compound “(S)-5-(1-(2-formyl-1,2,3,4-tetrahydroisoquinoline-3-carbonyl)-1,2,5,6-tetrahydropyridin-3-yl)-7-(2-methoxyphenyl)-N,N-dimethylbenzofuran-2-carboxamide [Example I-805]”, the IC50 was greater than 100000 nM.
As to `CCc1nc(C)ccc1-c1cc(C(=O)N2CCN(C3CC3)CC2)cc2c(F)c(C3=CCCN(C(=O)CCn4ccnn4)C3)n(CC3CC3)c12` [Example I-548], the IC50 was greater than 100000 nM.
`CCC1CN(C)CCC1c1cc(C2=CCCN(C(=O)CCn3ccnn3)C2)c(F)c2[nH]c(C(=O)N3CCN(c4ncc(F)cc4OC)CC3)cc12` (stereo not shown) [Example I-781]: the IC50 was less than 100 nM.
As to `CCc1cnccc1-c1cc(C2=CCCN(C(=O)CCn3cccn3)C2)c(F)c2[nH]c(C(=O)N3CCN(c4ncc(OC)cc4OC)CC3)cc12` [Example I-684], the 50% inhibitory concentration (IC50) is less than 100 nM.
Regarding `COc1cc(F)cnc1N1CCN(C(=O)c2cc3c(-c4ccc(-c5ccccn5)cc4)cc(C4=CCCN(C(=O)CCn5ccnn5)C4)c(F)c3[nH]2)CC1` [Example I-1120], the half-maximal inhibitory concentration (IC50) was less than 100 nM.
As for “5-(1-(2-formyl-1,2,3,4-tetrahydroisoquinoline-3-carbonyl)-1,2,5,6-tetrahydropyridin-3-yl)-7-(2-methoxyphenyl)-N,N-dimethylbenzofuran-2-carboxamide [Example I-803]”, the figure is greater than 100000 nM.
For the compound `COc1ccncc1-c1cc(C2=CCCN(C(=O)CCn3ccnn3)C2)c(F)c2[nH]c(C(=O)N3CCN(c4ccc(C5CC5)cc4OC)CC3)cc12` [Example I-481], the IC50 is less than 100 nM.
For the compound `COc1ccccc1-c1cc(C2=CCCN(C(=O)CCn3ccnn3)C2)c(F)c2[nH]c(C(=O)N3CCN(c4ccccn4)CC3)cc12` [Example I-862], the IC50 was less than 100 nM.
Turning to `COc1ccncc1-c1cc(C2CN(C(=O)CCn3ccnn3)CC(F)(F)C2)c(F)c2[nH]c(C(=O)N3CCN(c4ncc(F)cc4OC)CC3)cc12` (stereo not shown) [Example I-513], the concentration for half-maximal inhibition (IC50) was less than 100 nM.
For `CCCOc1ncc(C)cc1-c1cc(C2=CCCN(C(=O)CCn3ccnn3)C2)c(F)c2[nH]c(C(=O)N3CCN(c4ncc(F)cc4OC)CC3)cc12` [Example I-654], the half-inhibitory concentration (IC50) was less than 100 nM.
As for `COc1ccccc1-c1cc(C2=CCCN(C(=O)CCn3ccnn3)C2)c(F)c2[nH]c(C(=O)N3CCc4ncccc43)cc12` [Example I-974], the IC50 is less than 100 nM.
As for `COc1ccccc1-c1cc(C2=CCCN(C(=O)CCn3ccnn3)C2)c(F)c2[nH]c(C(=O)N3CCN(c4ccccc4F)CC3)cc12` [Example I-418], the figure is less than 100 nM; as for `COc1ccc(C)cc1-c1cc(C2=CCCN(C(=O)C3Cc4ccccc4CN3C=O)C2)cc2cc(C(=O)N(C)C)oc12` (stereo not shown) [Example I-1197], 100 to 1000 nM.
Consider `COc1ccc(C)cc1-c1cc(C2=CCCN(C(=O)C3Cc4ccccc4CN3C=O)C2)cc2cc(C(=O)N(C)C)oc12` (racemic) [Example I-1196], for which the half-inhibitory concentration (IC50) is less than 100 nM.
For the compound `COc1cccc(N2CCN(C(=O)c3cc4c(-c5ccc(N(C)C)cc5OC)cc(C5=CCCN(C(=O)CCn6ccnn6)C5)c(F)c4[nH]3)CC2)n1` [Example I-1109], the IC50 is less than 100 nM.
On to `CCn1ncc2c1CN(C(=O)c1cc3c(-c4cnc(C5CC5)cc4C)cc(C4=CCCN(C(=O)CCn5ccnn5)C4)c(F)c3[nH]1)C2` [Example I-766], for which the IC50 was greater than 100000 nM.
On to `COc1ccccc1N1CCN(C(=O)c2cc3c(-c4cnc5ccccc5c4OC)cc(C4=CCCN(C(=O)CCn5ccnn5)C4)c(F)c3[nH]2)CC1` [Example I-448], for which the half-maximal inhibitory concentration (IC50) was less than 100 nM.
Then `Cc1cc(F)ccc1-c1cc(C2=CCCN(C(=O)CCn3ccnn3)C2)cc2cc(C(=O)N(C)C)oc12` [Example I-1083], with less than 100 nM; and `COc1cc(F)cnc1N1CCN(C(=O)c2cc3c(-c4ccc(C(=O)N5CCCC5)cc4F)cc(C4=CCCN(C(=O)CCn5ccnn5)C4)c(F)c3[nH]2)CC1` [Example I-1143], with less than 100 nM.
